Converted amounts (≈) assume the structure as drawn.
Key:
CAKI-1 = test: NCI single-dose growth inhibition screen; assay type: cell-based; conditions: Homo sapiens; Renal Cancer CAKI-1; single dose 10^−5 M
PC-3 = test: NCI single-dose growth inhibition screen; assay type: cell-based; conditions: Homo sapiens; Prostate Cancer PC-3; single dose 10^−5 M
HOP-92 = test: NCI single-dose growth inhibition screen; assay type: cell-based; conditions: Homo sapiens; Non-Small Cell Lung Cancer HOP-92; single dose 10^−5 M
MALME-3 M = test: NCI single-dose growth inhibition screen; assay type: cell-based; conditions: Homo sapiens; Melanoma MALME-3 M; single dose 10^−5 M
SF-539 = test: NCI single-dose growth inhibition screen; assay type: cell-based; conditions: Homo sapiens; CNS Cancer SF-539; single dose 10^−5 M
HS 578T = test: NCI single-dose growth inhibition screen; assay type: cell-based; conditions: Homo sapiens; Breast Cancer HS 578T; single dose 10^−5 M
DU-145 = test: NCI single-dose growth inhibition screen; assay type: cell-based; conditions: Homo sapiens; Prostate Cancer DU-145; single dose 10^−5 M
IGROV1 = test: NCI single-dose growth inhibition screen; assay type: cell-based; conditions: Homo sapiens, IGROV-1; Ovarian Cancer IGROV1; single dose 10^−5 M
NCI-H460 = test: NCI single-dose growth inhibition screen; assay type: cell-based; conditions: Homo sapiens; Non-Small Cell Lung Cancer NCI-H460; single dose 10^−5 M
UO-31 = test: NCI single-dose growth inhibition screen; assay type: cell-based, human; conditions: Homo sapiens, UO-31, Renal Cancer UO-31; single dose 10^−5 M
MOLT-4 = test: NCI single-dose growth inhibition screen; assay type: cell-based; conditions: Homo sapiens; Leukemia MOLT-4; single dose 10^−5 M
SF-268 = test: NCI single-dose growth inhibition screen; assay type: cell-based; conditions: Homo sapiens; CNS Cancer SF-268; single dose 10^−5 M
MDA-MB-435 = test: NCI single-dose growth inhibition screen; assay type: cell-based; conditions: Homo sapiens; Melanoma MDA-MB-435; single dose 10^−5 M
UACC-62 = test: NCI single-dose growth inhibition screen; assay type: cell-based; conditions: Homo sapiens; Melanoma UACC-62; single dose 10^−5 M
HCT-116 = test: NCI single-dose growth inhibition screen; assay type: cell-based; conditions: Homo sapiens; Colon Cancer HCT-116; single dose 10^−5 M
A498 = test: NCI single-dose growth inhibition screen; assay type: cell-based, human; conditions: single dose 10^−5 M; for inhibition at 10 µM: Homo sapiens, A498, Renal Cancer A498
SR = test: NCI single-dose growth inhibition screen; assay type: cell-based; conditions: Homo sapiens; Leukemia SR; single dose 10^−5 M
NCI-H522 = test: NCI single-dose growth inhibition screen; assay type: cell-based; conditions: Homo sapiens; Non-Small Cell Lung Cancer NCI-H522; single dose 10^−5 M
OVCAR-4 = test: NCI single-dose growth inhibition screen; assay type: cell-based; conditions: Homo sapiens; Ovarian Cancer OVCAR-4; single dose 10^−5 M
SNB-19 = test: NCI single-dose growth inhibition screen; assay type: cell-based; conditions: Homo sapiens; CNS Cancer SNB-19; single dose 10^−5 M
T-47D = test: NCI single-dose growth inhibition screen; assay type: cell-based; conditions: Homo sapiens, T47D; Breast Cancer T-47D; single dose 10^−5 M
S. aureus ATCC 6538 = test: Antibacterial screening, agar cup diffusion method; assay type: cell-based; conditions: Gram + ve strain; for MIC: Staphylococcus aureus, ATCC6538, read-out: Minimum inhibitory concentrations (MIC, µM) S. aureus ATCC 6538
HOP-62 = test: NCI single-dose growth inhibition screen; assay type: cell-based; conditions: Homo sapiens; Non-Small Cell Lung Cancer HOP-62; single dose 10^−5 M
UACC-257 = test: NCI single-dose growth inhibition screen; assay type: cell-based; conditions: Homo sapiens; Melanoma UACC-257; single dose 10^−5 M
M14 = test: NCI single-dose growth inhibition screen; assay type: cell-based; conditions: Homo sapiens; Melanoma M14; single dose 10^−5 M
Description: Following the guidelines established by the drug evaluation department of the National Cancer Institute (NCI), USA, all target compounds 3a–l were examined against 60 cancer cell lines at a single concentration of 10 µM.
The anti-cancer potential of the tested compounds was evaluated at the National cancer institute (NCI), USA, against 9 panels of 60 various cell lines derived from nine human tumours available usually at NCI library. The procedures for the screening were described in details in NCI website (dttp://www.dtp.nci.nih.gov.) and were done according to NCI protocols[60] . The anticancer screening was carried out at single dose of 10^−5 M, NCI, Bethesda, USA. The results obtained as growth inhibition (%).

SK-MEL-2 = test: NCI single-dose growth inhibition screen; assay type: cell-based; conditions: Homo sapiens; Melanoma SK-MEL-2; single dose 10^−5 M
SK-MEL-28 = test: NCI single-dose growth inhibition screen; assay type: cell-based; conditions: Homo sapiens; Melanoma SK-MEL-28; single dose 10^−5 M
E. coli ATCC 25,922 = test: Antibacterial screening, agar cup diffusion method; assay type: cell-based; conditions: Escherichia coli, ATCC25, Gram –ve strain; read-out: Minimum inhibitory concentrations (MIC, µM) E. coli ATCC 25,922
Description: Anti-bacterial activity of the recently synthesized compounds 3a-k was evaluated at AUMC (Assiut University Mycological Centre), Assiut, Egypt. Assays were done against Gram-negative strains of K. pneumoniae (ATCC 100310, E. coli (ATCC 25922), Pseudomonas aeruginosa (ATCC 27853) and the Gram-positive S. aureus (ATCC 6538) strain utilizing standard agar cup diffusion method. The isolates from the four bacterial species examined were kept in TSB (Trypticase Soya Broth, Becton and Dickinson) with 10% glycerol at -70 °C and then subcultured on TSA (Trypticase Soya Agar, Becton and Dickinson) and TSB for 24 h at 37 °C former to inoculation. Bacterial isolates were then plated on sterile petri plates with 1 × 10^8 CFU/mL (0.5 McFarland turbidity) and 20 mL of Mueller Hinton Agar media (Oxoid) was then loaded. To ensure that the microorganisms were evenly dispersed, the plates were gently rotated before being left to harden on a level surface. Four equally spaced spherical-shaped wells (10 mm diameter) were painstakingly drilled using a sterilized cork bore after media solidification. All tested compounds under test underwent two-fold serial dilutions in a sequential manner. Three replications of 100 µL of each concentration were added to a well using a micropipette. Plates were then incubated for 24-hour at 37 °C. The average of the inhibition zones was then calculated. To determine the MICs, the natural logarithm of each diluted test substance’s concentration was plotted against the average area of the related inhibition zone. Following that, a regression line was created and the intercept on the ‘ln concentration” axis was determined, and the antilogarithm was calculated to indicate the MIC value[34],[63].

TK-10 = test: NCI single-dose growth inhibition screen; assay type: cell-based; conditions: Homo sapiens; Renal Cancer TK-10; single dose 10^−5 M
BT-549 = test: NCI single-dose growth inhibition screen; assay type: cell-based; conditions: Homo sapiens; Breast Cancer BT-549; single dose 10^−5 M
SNB-75 = test: NCI single-dose growth inhibition screen; assay type: cell-based, human; conditions: Homo sapiens, SNB-75, CNS Cancer SNB-75; single dose 10^−5 M
RPMI-8226 = test: NCI single-dose growth inhibition screen; assay type: cell-based; conditions: Homo sapiens; Leukemia RPMI-8226; single dose 10^−5 M
[1] = tested on: A498 renal cancer cell line; test: cells; conditions: Homo sapiens

Compound | inhibition at 10 µM (CAKI-1) | inhibition at 10 µM (PC-3) | inhibition at 10 µM (HOP-92) | inhibition at 10 µM (MALME-3 M) | inhibition at 10 µM (SF-539) | inhibition at 10 µM (HS 578T) | inhibition at 10 µM (DU-145) | inhibition at 10 µM (IGROV1) | inhibition at 10 µM (NCI-H460) | inhibition at 10 µM (UO-31) | inhibition at 10 µM (MOLT-4) | inhibition at 10 µM (SF-268) | inhibition at 10 µM (MDA-MB-435) | inhibition at 10 µM (UACC-62) | inhibition at 10 µM (HCT-116) | inhibition at 10 µM (A498) | inhibition at 10 µM (SR) | inhibition at 10 µM (NCI-H522) | inhibition at 10 µM (OVCAR-4) | inhibition at 10 µM (SNB-19) | further results
Cc1ccc(/C=C2\SC(=O)N(CCCC(=O)N3CCN(c4cc5c(cc4F)c(=O)c(C(=O)O)cn5C4CC4)CC3)C2=O)cc1 [3c] | 1.5% | 1.1% | < 0% | < 0% | 0.9% | < 0% | < 0% | 3.2% | < 0% | 16.5% | < 0% | 3.7% | < 0% | 4.2% | < 0% | 5.3% | < 0% | 1.7% | < 0% | < 0% | melting point: 233 to 234 °C; inhibition at 10 µM (T-47D): < 0%; MIC (S. aureus ATCC 6538): > 20 µM; inhibition at 10 µM (HOP-62): < 0%; inhibition at 10 µM (UACC-257): < 0%; inhibition at 10 µM (M14): < 0%; inhibition at 10 µM (SK-MEL-2): < 0%; inhibition at 10 µM (SK-MEL-28): < 0%; MIC (E. coli ATCC 25,922): 0.48 µM (≈ 0.297 µg/mL); inhibition at 10 µM (TK-10): < 0%
O=C(O)c1cn(C2CC2)c2cc(N3CCN(C(=O)CCCN4C(=O)S/C(=C\c5ccc(F)cc5)C4=O)CC3)c(F)cc2c1=O [3i] | 4.9% | < 0% | 5.7% | 14.8% | 5.8% | 3% | < 0% | 1.3% | < 0% | 21.7% | < 0% | 3.1% | 1.6% | 19.3% | 4.5% | 41.5% | 3.6% | 22.9% | 0.5% | 6.2% | inhibition at 10 µM (BT-549): 8.6%; inhibition at 10 µM (SNB-75): 16.5%; Growth Inhibition (%) (A498; Renal Cancer A498): 41.5%; inhibition at 10 µM (T-47D): 5%; Minimum inhibitory concentrations (MIC, µM) S. aureus ATCC 6538 (S. aureus ATCC 6538): did not show considerable anti-bacterial activity; MIC (S. aureus ATCC 6538): > 20 µM; inhibition at 10 µM (HOP-62): 2.9%; inhibition at 10 µM (UACC-257): 12.3%; inhibition at 10 µM (RPMI-8226): < 0%; inhibition at 10 µM (M14): 4.6%; inhibition at 10 µM (SK-MEL-2): < 0%; inhibition at 10 µM (SK-MEL-28): 1.5%; viability at 0.4 µM ([1]; A498): 95.7%; viability at 1.6 µM ([1]; A498): 83.5%; viability at 25 µM ([1]; A498): 65%; viability at 100 µM ([1]; A498): 52.3%; IC50 ([1]; A498, read-out: In vitro cytotoxicity (IC50) A498 cell line (µM ± SEM)): 147 ± 8.3 µM; MIC (E. coli ATCC 25,922): 0.54 µM (≈ 0.336 µg/mL); inhibition at 10 µM (TK-10): 4.7%

Source: article PMC11480511 (Scientific Reports, 2024)
